From patent publication US20210024483A1, “HETEROCYLCOALKENYL DERIVATIVES USEFUL AS AGONISTS OF THE GPR120 AND / OR GPR40” (Janssen Pharmaceutica NV, priority 2018, published 2021)
pEC50: −log10 of the molar value.

Target: T1, Human GPR120 short form (short splice variant, NM_001195755.1) (Homo sapiens, UniProt Q5NUL3)
T1 construct: expressed in transfected cells; host or cells: HEK293
T1 sequence (Q5NUL3 1-361): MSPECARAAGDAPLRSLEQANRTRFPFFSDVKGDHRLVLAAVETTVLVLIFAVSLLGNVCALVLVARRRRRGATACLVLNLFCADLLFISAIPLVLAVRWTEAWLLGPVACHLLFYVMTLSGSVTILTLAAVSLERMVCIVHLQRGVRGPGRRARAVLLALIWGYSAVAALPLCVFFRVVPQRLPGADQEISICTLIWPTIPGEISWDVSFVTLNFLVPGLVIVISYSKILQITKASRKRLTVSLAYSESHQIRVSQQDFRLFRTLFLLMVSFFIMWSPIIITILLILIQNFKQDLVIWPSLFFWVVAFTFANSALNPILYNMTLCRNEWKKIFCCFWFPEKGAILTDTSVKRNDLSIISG
Experiment: Human GPR120 Calcium Flux Assay
Assay type: cell-based
Details: HEK-293 cells, 4200 cells/well, read-out: Human GPR120 Calcium Flux Assay Procedure B EC50
In short: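 HEK293 cells stably expressing human GPR120 short form were starved 1 h and loaded with Fluo-4 NW dye with probenecid. Compound-induced calcium flux was read on FLIPR for 300 s, with the response taken as max minus min RFU. EC50 came from sigmoidal variable-slope fits.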

How did the pEC50 turn out when Cc1c(CCC(=O)O)ccc(OCC2=C(c3ccc(Cl)cc3)COCC2)c1C [ID No. 745, 3-[4-[[5-(4-chlorophenyl)-3,6-dihydro-2H-pyran-4-yl]methoxy]-2,3-dimethyl-phenyl]propanoic acid] was run?
The pEC50 was 6.96.
